Results taken from patent publication US8809298B2, “Methods, compositions, unit dosage forms, and kits testing for pharmacologic stress testing with reduced side effects” (Adenobio N.V., priority 2006, dated 2014).
Several values for one entry are separate records, joined by “and”; a condition that tells them apart may be missing. Equal entries are not always repeated.

Tests used:
[1] = system: patients suffering from ischemic heart disease; assay: Patient tolerance in Example 1: adverse events, VAS severity, EKG, vital signs; details: for Mean global visual analogue scale (VAS) score for the three main adverse events: total score of 30, ADE 140 μg/kg/min, SC adenosine 70 μg/kg/min
Source text: (§1) Primary efficacy end-points were peak and mean diastolic flow velocities (measured as reflecting coronary blood flow values). The secondary end-point was patient tolerance to the procedure.
(§2) VAS scores provide a measure of patient self-assessment of pain intensity/discomfort.

[2] = system: patients suffering from ischemic heart disease; assay: Transthoracic doppler echocardiography (TTDE): blood flow velocity in the left anterior descending coronary artery (LAD); type: in vivo, human; details: for Mean velocity ADE Max / Peak velocity ADE Max: adenosine alone 140 μg/kg/min IV, under stress conditions; for Mean velocity ADE Min / Peak velocity ADE Min: at rest (basal conditions) before adenosine 140 μg/kg/min; for MV-DIP Min / PV-DIP Min: at rest, dipyridamole alone arm
Experimental: In the combined administration, each of the two agents was administered at a dosage lower than its clinically preferred dosage when used as a single agent for myocardial perfusion imaging. Effects were measured using noninvasive transthoracic doppler echocardiography (TTDE).
The protocol was designed as follows.
Forty (40) consecutive patients suffering from ischemic heart disease were enrolled. Each patient served as their own control.
[…] These total doses are between about 4-6% of the lowest single-agent total dose of dipyridamole (i.e., 0.56 mg/kg, infused over a total of 4 minutes).
This dose is half the standard single-agent dosage rate of 140 μg/kg/min.

[3] = system: coronary patients; assay: Phase II SPECT imaging study: stress scores, 17-segment model; type: in vivo, human; set-up: key: sum of abnormal segment scores, each 0 = normal to 4 = no uptake; details: adenosine alone 140 μg/kg/min; Series I, individual patients 1-10; listed as Adenoscan
Experimental: The study, which is ongoing, is a mono-center, single-blind, 2-arm, cross-over trial.
Only those patients in whom an ischemic zone was detected were declared eligible for the second test, and were enrolled in the study if other inclusion criteria were satisfied.
SPECT images were acquired as per the standard approach performed the preceding week.
Randomization of SPECT images, and their analysis by two blinded readers, took place every 10 patients. Anonymous and randomized images were assessed using the standard 17-segment model and the semi-quantitative visual score method on a 5-point scale (from 0 to 4).
The “stress score” is the image of ischemia in one or more of the 17 cardiac segments, as scored from 0 to 4 by the blinded reader using the following scale: normal perfusion=0, mild reduction in counts=1, moderate reduction in counts=2, severe reduction=3, absence of uptake=4). Normally, a zone of ischemia is certain when a score ≧4 is noted. A stress score sums the scores of all abnormal segments.
“Stress score A” is the image score difference between stress conditions between adenosine alone and rest conditions. […] “Delta score” is the difference between “Stress score A” and “Stress score B.” It must not be >2 […]

[4] = system: coronary patients; assay: Safety of the procedure in the Phase II SPECT study: adverse events, visual scale, ST changes on EKG; type: in vivo, human
Experimental: Given the similar adverse effect profile, the 40 μg/kg dipyridamole dose is currently preferred, since it tends to show greater efficacy.
Table 13 gives adverse event severity cumulated scores, evaluated on a visual scale (going from 0 to 10), for the first 27 patients.
At this point in time, no difference in the occurrence of A2 receptor-related side effects, or severity of symptoms, has become clearly apparent as between the combination stressor and Adenoscan. In contrast, the reduction in the occurrence (−43%) and severity (−69%) of chest pain (an A1 receptor-related adverse effect) has already become manifest in the first 27 patients. […] The difference in ST-variation for each patient alone is not significant, but the total difference has achieved significance, with a clear trend in favor of the combination. In the table below (Table 14) ST-changes/baseline are expressed in millimeters.

[5] = cited from earlier work
[6] = system: patients suffering from ischemic heart disease; details: human, in vivo, iv
Source text: as §1, §2

[7] = adenosine alone 140 μg/kg/min, 40 patients
[8] = mean of 5 patients (DIP4 group)
[9] = mean of 5 patients (DIP6 group)
[10] = mean of 30 patients (DIP5 group)
[11] = at rest before adenosine infusion, individual patients (second control experiment)
[12] = at rest before first adenosine infusion, individual patients, listed as ADE1
[13] = at rest before first adenosine infusion, mean of 5 patients
[14] = at rest before second adenosine infusion, individual patients, listed as ADE2
[15] = at rest before second adenosine infusion, mean of 5 patients
[16] = first adenosine infusion 140 μg/kg/min, stress, mean of 5 patients
[17] = first vs second adenosine infusion 140 μg/kg/min, 5 patients
[18] = second adenosine infusion 140 μg/kg/min after 5 minute stabilization, stress, individual patients, listed as ADE2
[19] = second adenosine infusion 140 μg/kg/min, stress, mean of 5 patients
[20] = three minute adenosine infusion 140 μg/kg/min, stress, individual patients (second control experiment)
[21] = Adenoscan alone 140 μg/kg/min, n=27
[22] = visual scale 0 to 10, cumulated over first 27 patients
[23] = dipyridamole alone, bolus 28 μg/kg, individual patient
[24] = dipyridamole alone, bolus 35 μg/kg, individual patients
[25] = dipyridamole alone, bolus 40 μg/kg, individual patients

For `Nc1ncnc2c1ncn2[C@@H]1O[C@H](CO)[C@@H](O)[C@H]1O` [ADE, adenosine], the “Mean global visual analogue scale (VAS) score for the three main adverse events” value (shortened to “Mean global visual analogue scale”) ([1]; Group DIP4 (dipyridamole 35 μg/kg in SC), n=5) was 5.4, the “Mean global visual analogue scale” value ([1]; Group DIP5 (dipyridamole 28 μg/kg in SC), n=30) was 5.95 and the “Mean global visual analogue scale” value ([1]; Group DIP6 (dipyridamole 23 μg/kg in SC), n=5) was 8.2. For the same molecule, the “Symptoms under ADE” value ([1]; adenosine 140 μg/kg/min, individual patients (second control experiment)) was “None (2×) and Dyspnea and Flushing (2×)”, the “Symptoms under ADE: score” value ([1]; adenosine 140 μg/kg/min, score out of 10, individual patients) was 5/10 and 8/10 and 6/10 and the “Chest pain: # patients reporting events, ADE” value [1, 7] was 9. For the same molecule, the “Chest pain: frequency, ADE” value [1, 7] was 22.5%, the “Dyspnea: # patients reporting events, ADE” value [1, 7] was 20 and the “Dyspnea: frequency, ADE” value [1, 7] was 50%. The “Flushing: # patients reporting events, ADE” value [1, 7] was 21, the “Flushing: frequency, ADE” value [1, 7] was 52.5% and the “Differences in velocity measurements between first and second adenosine infusions” value ([2]; 140 μg/kg/min twice, 5 patients, P>0.05) was “No statistically significant differences”. For the same molecule, the “Mean velocity ADE Max” value ([2]; (DIP5 group)) was 61.4 cm/s, the “Mean velocity ADE Max” value ([2]; cumulated, all 40 patients) was 63.6 cm/s and the “Peak velocity ADE Max” value ([2]; cumulated, all 40 patients) was 85.3 cm/sec. The “Mean velocity ADE Max” value [2, 8] was 60.4 cm/s, the “Peak velocity ADE Max” value [2, 8] was 80 cm/sec and the “Mean velocity ADE Max” value [2, 9] was 80.2 cm/s. The “Peak velocity ADE Max” value [2, 9] was 107 cm/sec, the “Peak velocity ADE Max” value [2, 10] was 82.6 cm/sec and the “Mean velocity ADE Min” value ([2]; cumulated, all 40 patients) was 23.7 cm/s. For the same molecule, the “Peak velocity ADE Min” value ([2]; cumulated, all 40 patients) was 31.2 cm/sec, the “Mean velocity ADE Min” value [2, 8] was 22.2 cm/s and the “Peak velocity ADE Min” value [2, 8] was 28 cm/sec. The “Mean velocity ADE Min” value [2, 9] was 28.2 cm/s, the “Peak velocity ADE Min” value [2, 9] was 37.6 cm/sec and the “Mean velocity ADE Min” value [2, 10] was 23.1 cm/s. For the same molecule, the “Peak velocity ADE Min” value [2, 10] was 30.6 cm/sec, the “MV-ADE Min” value [2, 11] was 21 cm/sec and 23 cm/sec (2×) and 25 cm/sec and 20 cm/sec and the “PV-ADE Min” value [2, 11] was 25 cm/sec and 33 cm/sec (2×) and 27 cm/sec and 32 cm/sec. The “MV-ADE1 Min” value [2, 12] was 25 cm/s and 17 cm/s and 22 cm/s and 23 cm/s and 20 cm/s, the “PV-ADE1 Min” value [2, 12] was 34 cm/sec and 23 cm/sec and 30 cm/sec (2×) and 28 cm/sec and the “MV-ADE1 Min, Mean” value [2, 13] was 21.4 cm/s. For the same molecule, the “PV-ADE1 Min, Mean” value [2, 13] was 29 cm/sec, the “MV-ADE2 Min” value [2, 14] was 23 cm/s and 16 cm/s and 22 cm/s and 21 cm/s and 20 cm/s and the “PV-ADE2 Min” value [2, 14] was 31 cm/sec and 22 cm/sec and 29 cm/sec and 26 cm/sec and 25 cm/sec. The “MV-ADE2 Min, Mean” value [2, 15] was 20.4 cm/s, the “PV-ADE2 Min, Mean” value [2, 15] was 26.6 cm/sec and the “PV-ADE1 Max” value ([2]; first adenosine infusion 140 μg/kg/min, stress, individual patients (first control experiment), listed as ADE1) was 68 cm/sec and 65 cm/sec and 102 cm/sec and 73 cm/sec and 70 cm/sec. The “MV-ADE1 Max” value ([2]; first adenosine infusion 140 μg/kg/min, stress, individual patients, listed as ADE1) was 49 cm/s and 48 cm/s and 75 cm/s and 53 cm/s and 50 cm/s, the “MV-ADE1 Max, Mean” value [2, 16] was 55 cm/s and the “PV-ADE1 Max, Mean” value [2, 16] was 75.6 cm/sec. The “Max velocity differential MV (ADE1 − ADE2)” value [2, 17] was “(ADE2) = 2.4 cm/sec”, the “Max velocity differential PV (ADE1 − ADE2)” value [2, 17] was “(ADE2) = 4.8 cm/sec” and the “MV-ADE2 Max” value [2, 18] was 45 cm/sec and 48 cm/sec (2×) and 75 cm/sec and 47 cm/sec. The “PV-ADE2 Max” value [2, 18] was 60 cm/sec and 66 cm/sec and 103 cm/sec and 63 cm/sec and 62 cm/sec, the “MV-ADE2 Max, Mean” value [2, 19] was 52.6 cm/s and the “PV-ADE2 Max, Mean” value [2, 19] was 70.8 cm/sec. For the same molecule, the “MV-ADE Max” value [2, 20] was 71 cm/s and 67 cm/s and 86 cm/s and 64 cm/s and 61 cm/s, the “PV-ADE Max” value [2, 20] was 88 cm/sec and 92 cm/sec and 112 cm/sec and 84 cm/sec (2×) and the “Stress score A (Adenoscan)” value [3] was 5 (5×) and 4 (2×) and 14 and 13 and 7. For the same molecule, the “Chest pain: # patients reporting event, ADE” value [4, 21] was 14, the “Dyspnea: # patients reporting event, ADE” value [4, 21] was 11 and the “Flushing: # patients reporting event, ADE” value [4, 21] was 14. The “ST-changes/baseline, Adenosine 140 μg/kg/mn” value ([4]; EKG, individual patients with ST variations (6 of 27)) was 0.5 millimeters and 1 millimeters (3×) and 0.8 millimeters and 1.2 millimeters, the “ST-changes/baseline, Adenosine 140 μg/kg/mn, Total” value ([4]; EKG, total of 6 patients) was 5.5 millimeters and the “Chest pain: adverse event severity cumulated score” value [4, 22] was 60. For the same molecule, the “Dyspnea: adverse event severity cumulated score” value [4, 22] was 40 and the “Flushing: adverse event severity cumulated score” value [4, 22] was 43.5.

In the case of `OCCN(CCO)c1nc(N2CCCCC2)c2nc(N(CCO)CCO)nc(N3CCCCC3)c2n1` [DIP, dipyridamole], the Stability in solvents ([5]; pH>4, long term) is given as “unstable in the long term”, the Solubility in saline ([5]; saline) is given as “poorly soluble” and the “MV-DIP Min” value ([2]; 28 μg/kg, individual patient) is given as 19 cm/s. For the same molecule, the “PV-DIP Min” value ([2]; 28 μg/kg, individual patient) was 23 cm/sec, the “MV-DIP Min” value ([2]; 35 μg/kg, individual patients) was 18 cm/s and 22 cm/s and the “PV-DIP Min” value ([2]; 35 μg/kg, individual patients) was 21 cm/sec and 30 cm/sec. The “MV-DIP Min” value ([2]; 40 μg/kg, individual patients) was 23 cm/s and 24 cm/s, the “PV-DIP Min” value ([2]; 40 μg/kg, individual patients) was 33 cm/sec and 34 cm/sec and the “Effect on peak and mean diastolic velocities” value ([2]; dipyridamole alone, IV bolus 28 to 40 μg/kg, 5 patients) was “did not modify”. The “MV-DIP Max” value [2, 23] was 21 cm/s, the “PV-DIP Max” value [2, 23] was 26 cm/sec and the “MV-DIP Max” value [2, 24] was 20 cm/s and 28 cm/s. The “PV-DIP Max” value [2, 24] was 23 cm/sec and 40 cm/sec, the “MV-DIP Max” value [2, 25] was 25 cm/s and 29 cm/s and the “PV-DIP Max” value [2, 25] was 35 cm/sec and 40 cm/sec. For the same molecule, the “Symptoms during a follow-up of 10 minutes” value [6] was “No symptoms”.
